Measured values from patent US8846627B2, “Method for treatment of malaria” (The Second Military Medical University, priority 2009, dated 2014).
Read-outs that look alike come from different tables or passages of the source.

How the values were obtained:
[1] = test system: chloroquine sensitive (D6) strain of P. falciparum; test: In vitro anti-malarial activity assay (plasmodial LDH activity), D6 clone; format: cell-based; conditions: Plasmodium falciparum, read-out: P. falciparum (D6 Clone) IC50
Description: (§1) In vitro anti-malarial activity of the representative compounds was determined against chloroquine sensitive (D6) and chloroquine-resistant (W2) strains of P. falciparum.
(§2) The anti-malarial activity was determined by measuring plasmodial LDH activity as described earlier (Jain, M.; Khan, S. I.; Tekwani, B. L.; Jacob, M. R.; Singh, S.; Singh, P. P.; Jain, R. Synthesis, anti-malarial, antileishmanial, and antimicrobial activities of some 8-quinolinamine analogues. Bioorg. Med. Chem. 2005, 13, 4458-4466). A suspension of red blood cells infected with D6 or W2 strains of P. falciparum (200 with 2% parasitemia and 2% hematocrit in RPMI 1640 medium supplemented with 10% human serum and 60 µg/mL Amikacin) was added to the wells of a 96-well plate containing 10 μL of serially diluted test samples. The plate was flushed with a gas mixture of 90% N2, 5% O2, and 5% CO2 and incubated at 37° C. for 72 h in a modular incubation chamber (Billups-Rothenberg, Calif.). Parasitic LDH activity was determined by using Malstat™ reagent (Flow Inc., Portland, Oreg.) according to the procedure of Makler and Hinrichs (M. T. Makler and D. J. Hinrichs, Measurement of the lactate dehydrogenase activity of Plasmodium falciparum as an assessment of parasitemia. J. Am. J. Trop. Med. Hyg. 1993, 48(2):205-210). Briefly, 20 μl, of the incubation mixture was mixed with 100 μL of the Malstat™ reagent and incubated at room temperature for 30 min Twenty microliters of a 1:1 mixture of NBT/PES (Sigma, St. Louis, Mo.) was then added and the plate was further incubated in the dark for 1 h. The reaction was then stopped by the addition of 100 μL of a 5% acetic acid solution. The plate was read at 650 nm. Artemisinin and chloroquine were included in each assay as the drug controls. IC50 values were computed from the dose-response curves. To determine the selectivity index of anti-malarial activity of compounds, their cytotoxicity in vitro to mammalian cells was also determined. The assay was performed in 96-well tissue culture-treated plates as described earlier (J. Mustafa, S. I. Khan, G. Ma, L. A. Walker and I. A. Khan, Synthesis and Anticancer Activities of Fatty Acid Analogs of Podophyllotoxin. Lipids. 2004, 39(2):167-172). Vero cells (monkey kidney fibroblasts) were seeded to the wells of 96-well plate at a density of 25,000 cells/well and incubated for 24 h. Samples at different concentrations were added and plates were again incubated for 48 h. The number of viable cells was determined by Neutral Red assay. IC50 values were obtained from dose-response curves. Doxorubicin was used as a positive control.

[2] = test system: chloroquine-resistant (W2) strain of P. falciparum; test: In vitro anti-malarial activity assay (plasmodial LDH activity), W2 clone; format: cell-based; conditions: Plasmodium falciparum, read-out: P. falciparum (W2 Clone) IC50
Description: as §1, §2

[3] = test system: Plasmodium berghei (chloroquine sensitive strain); test: In vivo anti-malarial activity, 4-day suppressive test in infected mice; conditions: Swiss albino mice; for Day 4 % Suppression / Day 5 % Suppression / Day 6 % Suppression: intragastric
Description: Tests were performed in a 4-day suppressive standard test using the methods of David, Thurston and Peters (David, A. F., Philip, J. R., Simon, L. C., Reto B., and Solomon N. Antimalarial drug discovery: Efficacy models for compound screening. Nature Reviews. 2004; 3: 509-520). The plasmodium species, that is most widely employed in rodent malaria parasite-Plasmodium berghei (chloroquine sensitive strain), was used to infect Swiss albino mice for a fourday suppressive test. The P. berghei was subsequently maintained in the laboratory by serial blood passage from mouse to mouse. For the study, a donor mouse with a rising parasitemia of 20% was sacrificed and its blood was collected in a slightly heparinized syringe from the auxiliary vessels. The blood was diluted with Trisodium Citrate (TC) medium so that each 0.2 ml contained approximately 107 infected red cells. Each animal received inoculums of about […], which is expected to produce a steadily rising infection in mice.
Male Swiss albino mice were used. The mice were allowed to acclimatize to the laboratory environment under a controlled temperature of 20° C. and at optimum humidity for at least three days before being subjected to the experiments. All of the mice were divided into groups of six, and infected with malaria parasites.
The infection of the recipient mice was initiated by needle passage of the above mentioned parasite preparation, from the donor to healthy test animals via an intraperitoneal route. Therefore, P. berghei infected red blood cells were intraperitoneally injected into the mice from the blood diluted with TC medium so that each 0.2 ml had approximately 106-107 infected red cells (parasite per kg of body weight). Each mouse was infected with single inoculums of 0.2 ml blood.
The 4-day procedures were started on Mondays while blood smears for parasitemia were collected on Fridays. The infected mice were weighed, randomly divided into treatment, vehicle and standard drug groups. […] The compounds were administered through intra gastric route using the stomach tube to ensure the safe ingestion of the compounds and the vehicle.
Thin smears of blood films were obtained from the peripheral blood on the tail from each mouse on day four after infection. The smears were placed on microscopic slides, fixed with methanol and stained with Gemsa at pH 7.2, for parasitemia. […] The number of parasitized erythrocytes in each of the 10-50 such fields were counted three times and the average was calculated to give the Parasitemia of each individual animal. Percentage of suppression was calculated by using the following formula. % Suppression=(Parasitemia in negative control−Parasitemia in study group)/Parasitemia in negative control

[4] = biological target: T1, Falcipain-2 protease (FP-2) (Plasmodium falciparum, UniProt Q8I6U4); test: Falcipain-2 protease inhibition assay (fluorescence reaction rate); format: biochemical; conditions: for inhibition at 10 µM: 10 μM compound, pH 5.5; for IC50: pH 5.5, sigmoidal fit, read-out: IC50 against falcipain-2
T1 construct: The falcipain-2 fragment was amplified by the polymerase chain reaction (PCR); His6 (N-terminal MRGS-His6 supplied by the pQE-30 vector; own knowledge of the vector, consistent with the Ni2+-NTA purification) (N); made in house; host or cells: E. coli M15
T1 sequence (Q8I6U4 244-484): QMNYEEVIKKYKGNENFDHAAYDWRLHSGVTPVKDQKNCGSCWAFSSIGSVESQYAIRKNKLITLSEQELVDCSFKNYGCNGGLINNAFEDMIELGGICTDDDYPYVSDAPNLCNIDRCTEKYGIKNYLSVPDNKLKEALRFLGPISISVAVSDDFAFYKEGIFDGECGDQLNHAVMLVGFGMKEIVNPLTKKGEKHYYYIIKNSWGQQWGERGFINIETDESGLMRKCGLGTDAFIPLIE
Description: (1) Expression and Purification of Falcipain-2 and Refolding of FP-2 Inclusion Bodies Protein
(2) The Determination of the Invention Compounds' Inhibitory Activity Against FP-2
FP-2 protein and test compounds dissolved in DMSO (prepared from EXAMPLES 1-4) were added to 197 μL, buffer, containing 100 mM NaOAc, 10 mM DTT, pH 5.5 (final concentration 10 μg/mL). The test compound were Stenopalustroside A, Stenopalustroside D, Tiliroside, kaempferol 3-O-β-(6″-caffeoylglucoside) and kaempferol 3-(2,4-di-E-p-coumaroyl-rhamnoside), respectively, which final concentration were 10 μM and 0 μM (as negative control). These compounds were incubated for […] and employed MD SpectraMax M5 Microplate Reader to continuous detect the RFU for 15 min, at excitation 355 nm and emission 460 nm Calculate the reaction rate Km, and obtain percentage inhibitory rate of the test compound at 10 μM by the following equation,
The equation is: (Kmof control group−Kmof experimental group)/Kmof control group×100%
Select […] compounds with over 50% inhibitory rate to detect IC50, and utilize the compound solutions prepared from EXAMPLE 1 to EXAMPLE 4, Stenopalustroside A, tiliroside kaempferol 3-O-β-(6″-caffeoylglucoside), and the experimental methods and system followed as EXAMPLE 6. According to FP-2 activity reaction rate Km with compounds at different concentrations, we can calculate the inhibitory rate of compounds against FP-2 at different concentration. The IC50 value was fitted with utilizing the Sigmoidal Equation by Origin software.

[5] = D6, 72 h incubation, LDH readout
[6] = W2, 72 h incubation, LDH readout

Structure (SMILES) | IC50 [1, 5] [µM] | IC50 [2, 6] [µM] | Day 4 % Suppression ([3]; 10 mg/kg daily for 4 days) [%] | Day 5 % Suppression ([3]; 10 mg/kg daily for 4 days) [%] | Day 6 % Suppression ([3]; 10 mg/kg daily for 4 days) [%] | inhibition at 10 µM [4] [%] | IC50 [4] [µM] | Day 4 % Suppression ([3]; 200 mg/kg daily for 4 days) [%] | Day 5 % Suppression ([3]; 200 mg/kg daily for 4 days) [%] | Day 6 % Suppression ([3]; 200 mg/kg daily for 4 days) [%] | Day 4 % Suppression ([3]; 50 mg/kg daily for 4 days) [%] | Day 5 % Suppression ([3]; 50 mg/kg daily for 4 days) [%] | Day 6 % Suppression ([3]; 50 mg/kg daily for 4 days) [%] | Day 4 % Suppression ([3]; 100 mg/kg daily for 4 days) [%] | Day 5 % Suppression ([3]; 100 mg/kg daily for 4 days) [%] | Day 6 % Suppression ([3]; 100 mg/kg daily for 4 days) [%] | Day 5 % Suppression ([3]; 400 mg/kg daily for 4 days) [%] | also measured
C[C@@H]1CC[C@H]2[C@@H](C)C(=O)O[C@@H]3O[C@@]4(C)CC[C@@H]1[C@]32OO4 [Artemisinine, reference compound] | < 26.4 | < 26.4 |  |  |  |  |  |  |  |  |  |  |  |  |  |  |  | 
CCN(CC)CCCC(C)Nc1ccnc2cc(Cl)ccc12 (stereo not shown) [Chloroquine, reference compound] |  |  | 100 | 100 | 100 |  |  |  |  |  |  |  |  |  |  |  |  | IC50 ([1]; D6, 72 h): < 26.4 µM; IC50 ([2]; W2, 72 h): 160 µM
O=C(/C=C\c1ccc(O)cc1)OCC1O[C@@H](Oc2c(-c3ccc(O)cc3)oc3cc(O)cc(O)c3c2=O)C(O)[C@H](OC(=O)/C=C\c2ccc(O)cc2)[C@@H]1O (stereo partly shown) [Stenopalustroside A] | 32.8 | 98.6 |  |  |  | 53 | 1.45 | 34.7 | 33.3 | 18.9 |  |  |  |  |  |  |  | 
O=C(/C=C\c1ccc(O)cc1)OCC1O[C@@H](Oc2c(-c3ccc(O)cc3)oc3cc(O)cc(O)c3c2=O)C(O)[C@H](OC(=O)/C=C/c2ccc(O)cc2)[C@@H]1O (stereo partly shown) [Stenopalustroside D] | 68.4 | 165 | 30.4 | 51.5 | 32.4 | 39.4 |  | 43.4 | 42.4 | 37.8 | 60.8 | 63.6 | 58.3 | 56.5 | 60.6 | 45.9 | 24.2 | Day 4 % Suppression ([3]; 400 mg/kg daily for 4 days): 8.6%; Day 6 % Suppression ([3]; 400 mg/kg daily for 4 days): 13.5%; maximum suppression ratio ([3]; maximum over doses and days): 60%
CC1O[C@@H](Oc2c(-c3ccc(O)cc3)oc3cc(O)cc(O)c3c2=O)C(OC(=O)/C=C/c2ccc(O)cc2)C(O)[C@H]1OC(=O)/C=C/c1ccc(O)cc1 (stereo partly shown) [kaempferol 3-(2,4-di-E-p-coumaroyl-rhamnoside)] | 45.1 | 147 |  |  |  | 49.4 |  |  | 9.0 | 5.4 | 34.7 | 24.2 | 29.7 | 13.0 | 21.2 | 24.3 |  | 
O=C(/C=C/c1ccc(O)c(O)c1)OCC1O[C@@H](Oc2c(-c3ccc(O)cc3)oc3cc(O)cc(O)c3c2=O)C(O)C(O)[C@@H]1O (stereo partly drawn) [kaempferol 3-O-β-(6″-caffeoylglucoside)] | 55.8 | 91.3 | 20.6 | 27.2 | 37.8 | 53 | 13.5 | 4.3 | 9.0 | 5.4 | 52.1 | 54.5 | 45.9 | 13.0 | 15.1 | 10.8 | 6.0 | 
